In publication PMC11581978, “Paenilamicins are context-specific translocation inhibitors of protein synthesis” (Nature Chemical Biology, 2024):
pIC50: −log10 of the molar value.

How the values were obtained:
[1] = system: E. coli ribosomes translating MLIFstop-mRNA; experiment: Toeprinting assay on MLIFstop-mRNA; format: biochemical; conditions: 100 µM, positive control, toeprinting in duplicate
Source text: To investigate how paenilamicins inhibit translation, we generated PamB2-stalled ribosome complexes (PamB2-SRC) for single-particle cryo-EM analysis. Rather than forming complexes on vacant ribosomes, or with predefined functional states, we instead aimed to use more physiological complexes where translating ribosomes become stalled by PamB2. To achieve this, we performed in vitro translation reactions with E. coli ribosomes using the Met-Leu-Ile-Phe-stop-mRNA (MLIFstop-mRNA), a model template that we had previously used to successfully determine structures of drosocin-stalled ribosomal complexes. Toeprinting was used to monitor the position of ribosomes on the MLIFstop-mRNA in the presence of increasing concentrations of synthetic PamB2 (Extended Data Fig. 2). […] (Extended Data Fig. 2). […] (Extended Data Fig. 2).
Toeprinting reactions for Fig. 4b and Extended Data Fig. 2 were performed as described previously. Briefly, reactions were performed with 6 μl of PURExpress in vitro protein synthesis system (New England Biolabs). The reactions were carried out with different primers and templates (Supplementary Tables 2 and 3). The reactions contained 340 ng of the respective mRNA template and were supplemented with the different compounds as specified. The translation reactions were incubated for 30 min at 37 °C. […]

[2] = system: Escherichia coli in vitro translation; conditions: well-known translation inhibitors; read-out: IC50; cited from earlier work
Source text: The accordance of structural features of paenilamicins with the translation inhibitor edeine (Extended Data Fig. 1c) led to the hypothesis that paenilamicins may also exert their antimicrobial activity by binding to the ribosome and inhibiting protein synthesis. […] The best understood context-specific translation inhibitors are those that target the large subunit, where their inhibitory action is influenced by the sequence of the nascent polypeptide chain being synthesized, for example, macrolides and ketolides[30]–[32] ...

[3] = system: ribosomes translating ErmBL mRNA; experiment: Toeprinting on ErmBL mRNA templates (Figs. 4a and 5c); format: biochemical, E. coli; conditions: for ribosome stalling on wildtype ErmBL mRNA: mupirocin present, in duplicate
Protocol: Toeprinting reactions for Figs. 4a and 5c were performed as described previously. Briefly, reactions were performed with 5 μl of PURExpress in vitro protein synthesis system. The reactions contained 0.1 pmol of the respective DNA template (Supplementary Table 2) and were supplemented with retapamulin, erythromycin, mupirocin or PamB2 as specified. The transcription–translation reactions were incubated 20 min at 37 °C. Subsequently, reverse transcription was performed for 10 min at 37 °C using AMV RT and the radiolabeled NV*1-primer. Reactions were stopped by the addition of 1 µl of 10 M NaOH and then neutralized with 0.8 µl of concentrated HCl. Subsequently, 200 µl of the stop buffer (0.3 M sodium acetate (pH 5.5), 5 mM EDTA and 0.5% SDS) was added and phenol extraction was performed. The obtained complementary DNA was precipitated in ethanol for subsequent gel electrophoresis.

[4] = system: EF-G-dependent translocation on the ribosome; experiment: Translocation assay (toeprinting, MFKAFK template); format: biochemical; conditions: EF-G present; tRNAfMet in P-site, N-AcPhe-tRNAPhe in A-site; in duplicate
Protocol: Translocation assays were performed as previously described[22] using the MFKAFK template[45] (Supplementary Table 2). Reactions were prepared by incubating tight-coupled ribosomes (0.7 µM) with mRNA (0.5 µM) and tRNAi^Met (1 µM) for 20 min at 37 °C in the Pure System Buffer (5 mM potassium phosphate (pH 7.3), 9 mM Mg(OAc)2, 95 mM potassium glutamate, 5 mM NH4Cl, 0.5 mM CaCl2, 1 mM spermidine, 8 mM putrescine and 1 mM dithiothreitol) and for additional 10 min at 37 °C with 2 μM of N-acetyl-Phe-tRNA^Phe. At the time of N-acetyl-Phe-tRNA^Phe addition, the reactions were supplemented with PamB2 or negamycin as specified. The translocation reaction was initiated by addition of 1 µl of EF-G–GTP mixture (1.2 µM and 3.2 mM). After 5 min of incubation at 30 °C, 2 µl of reverse transcriptase and/or dNTPs mixture was added. The reactions were stopped after another 5 min at 30 °C by addition of 200 µl of the stop buffer and subsequent phenol extraction. The obtained complementary DNA was precipitated in ethanol for subsequent gel electrophoresis.

[5] = system: EF-G-dependent translocation on the ribosome; design: method as in PMID 25306922; conditions: cited from earlier work

Molecule: thiostrepton [reference compound]
- ribosome stalling on MLIFstop-mRNA [1]: a single strong band is observed that corresponds to ribosomes trapped on the AUG start codon

Molecule: O=C(N[C@H](CO)[C@H](O)c1ccc([N+](=O)[O-])cc1)C(Cl)Cl [chloramphenicol, reference compound]
- pIC50 [2]: 6.00

Molecule: C/C(=C\C(=O)OCCCCCCCCC(=O)O)C[C@@H]1OC[C@H](C[C@@H]2O[C@H]2[C@@H](C)[C@H](C)O)[C@@H](O)[C@H]1O [mupirocin, reference compound]
- ribosome trapping at twelfth codon (AUC, Ile) of ErmBL mRNA ([3]; Ile-tRNA synthetase inhibitor added to all reactions, concentration not given): become trapped

Molecule: CN(CC(=O)O)NC(=O)C[C@H](N)C[C@@H](O)CN [negamycin, reference compound]
- EF-G dependent translocation (toeprint shift) [4]: little to no shift in the toeprint band
- interference with translocation [5]: interfere with translocation

Molecule: C=C[C@]1(C)C[C@@H](OC(=O)CS[C@@H]2C[C@H]3CC[C@@H](C2)N3C)[C@]2(C)[C@H](C)CC[C@]3(CCC(=O)[C@H]32)[C@@H](C)[C@@H]1O [retapamulin, reference compound]
- ribosome stalling on wildtype ErmBL mRNA ([3]; 50 or 100 µM): traps ribosomes on the AUG start codon

Molecule: CC[C@H]1OC(=O)[C@H](C)[C@@H](O[C@H]2C[C@@](C)(OC)[C@@H](O)[C@H](C)O2)[C@H](C)[C@@H](O[C@@H]2O[C@H](C)C[C@H](N(C)C)[C@H]2O)[C@](C)(O)C[C@@H](C)C(=O)[C@H](C)[C@@H](O)[C@]1(C)O [erythromycin, reference compound]
- ribosome stalling on wildtype ErmBL mRNA ([3]; 50 µM): accumulation of ribosomes stalled with the tenth CAU codon (encoding Asp) in the P-site
- pIC50 [2]: 6.12

Molecule: CN(C)[C@@H]1C(O)=C(C(N)=O)C(=O)[C@@]2(O)C(O)=C3C(=O)c4c(O)cccc4[C@@](C)(O)[C@H]3C[C@@H]12 [tetracycline, reference compound]
- pIC50 [2]: 5.00
